Values of other authors, collected in US20040142045A1, “THERAPEUTIC TREATMENT FOR BLOOD SUGAR REGULATION” (priority 2003, published 2004).
Read-outs that look alike come from different tables or passages of the source.

Tests used:
[1] = diabetic animals
[2] = animal models of insulin resistance and Type 2 diabetic patients
glucokinase = conditions: supplementation
[3] = insulin dependent diabetes mellitus
[4] = experimental animals
[5] = Type 1 and Type 2 diabetics, supplementation
[6] = diabetics, dietary supplementation
[7] = another study, supplementation
[8] = mice with abnormally high glucose concentrations

O=C(O)CCCCC1CCSS1 (stereo not drawn) [Alpha lipoic acid]
blood glucose levels [1]: lower
glucose uptake into the peripheral tissues [1]: enhanced
insulin regulated glucose disposal [2]: improve

O=C(O)CCCC[C@@H]1SC[C@@H]2NC(=O)N[C@@H]21 [Biotin]
activity of glucokinase (glucokinase): increase
fasting blood glucose levels [3]: significant reduction

NC(=O)c1cccnc1 [Nicotinamide]
development of diabetes [4]: prevent

[Zn] [Zinc]
insulin levels [5]: improve

[Cr] [chromium]
fasting blood glucose levels [6]: decrease

O=S(=O)([O-])[O-].[O]=[V+2] [vanadyl sulfate]
fasting blood glucose and hepatic insulin resistance [7]: modest reductions

methylhydroxy chalcone polymer
glucose concentrations [8]: fell dramatically
